Row | Compound | melting point [°C]
1 | CCC12CCC3c4ccc(OC)cc4CCC3C1CC=C2OC(C)=O (stereo not drawn) | 105 to 106
2 | O=C(N[C@@H](Cc1ccccc1)[C@H]1CO1)OCc1ccccc1 | 102 to 103
3 | O=C(Nc1ccc(C2CN(C(=O)OCc3ccccc3)C2)c(F)c1)OCc1ccccc1 | 95
4 | Nc1cccc(Oc2ncccc2C(=O)NCc2ccccc2Cl)c1 | 101 to 103
5 | COc1cccc2c1C(=O)c1c(OC)cc(C(=O)N(C)O)cc1C2=O | 182
6 | CNc1ncnc2c1nnn2Cc1ccccc1F | 180 to 182
7 | CC(=O)C1=C(O)C(C(=O)C=Cc2ccccc2)C(=O)OC1=O (stereo not drawn) | 154 to 155
8 | O=C(O)CN1C(=O)C2C3C=CC(CC3)C2C1=O (stereo not drawn) | 142
9 | O=C(Nc1ccccc1C(F)(F)F)C1CCCCC1 | 153 to 154
10 | O=C(O)c1ncn2c1c(=O)[nH]c1ccccc12 | > 300
11 | Cc1ccc(C(=O)NC/C=C/c2ccccc2)cc1 | 134
12 | Cc1ccc(C2(C#N)C3CC4CC(C3)CC2C4)cc1 (stereo not drawn) | 99 to 100
13 | CCc1nc(C2CCCC2)n2nc(-c3ccc(OC)c(S(=O)(=O)N4CCOCC4)c3)[nH]c(=O)c12 | 204
14 | COc1ccc(C2C3=C(COC3=O)Nc3ccc4cn[nH]c4c32)cc1[N+](=O)[O-] (stereo not drawn) | 217 to 218
15 | N#Cc1nc(-c2cc(Cl)cc(Cl)c2Cl)c(N)nc1N | 277 to 279
16 | CSC[C@H](C)NC(=O)c1c(Cl)cccc1C(=O)Nc1ccc(Cn2nc(C(F)(F)F)cc2C(F)(F)F)nc1C | 92
17 | O=c1oc(C(F)(F)F)nc2ccc(I)cc12 | 131 to 132
18 | COCn1nnc(NC(=O)C(c2ccccc2)c2ccccc2)n1 | 127 to 128
19 | FC(F)(F)c1cc(Cl)c(-c2nc(C(F)(F)F)c[nH]2)c(Cl)c1 | 213 to 215
20 | CCCNS(=O)(=O)Nc1ncccc1C(=O)OC | 208 to 210
21 | COC(=O)COc1ccc([N+](=O)[O-])c(F)c1 | 93 to 94
22 | Cn1nnnc1SCCCCSC1=Nc2ccccc2C(=O)NN1 | 94 to 95

Row | Compound | melting point [°C]
23 | CC(C)(C)S(=O)(=O)CC(Cc1ccccc1)C(=O)O (stereo not drawn) | 147 to 148
24 | NCC1COc2cc(Cl)cc(-c3ccccc3)c2N1 (stereo not drawn) | 92
25 | NC(=O)COc1ccc(-c2n[nH]c3c2Cc2ccccc2-3)cc1 | 247 to 248
26 | COc1ccc(C2(C(C)NCc3ccncc3)CCC2)cc1 (stereo not drawn) | 110 to 113
27 | CC(CSC(C)C(=O)O)C(=O)O (stereo not drawn) | 78 to 80
28 | Cc1c(-c2cnccn2)sc2nc(N)[nH]c(=O)c12 | 280 to 300
29 | COC(=O)CON=C(C(=O)O)C(=O)CCl | 127 to 128
30 | C#Cc1cccc(-n2ncc3c(NCc4ccc5c(c4)OCCO5)ncnc32)c1 | 161
31 | Cc1c(F)cccc1NN | 69
32 | COc1cc(OC)c(-c2cc3ccccc3n2C(=O)OC(C)(C)C)cc1/C=C/C(=O)c1ccc(S(N)(=O)=O)cc1 | 120 to 122
33 | Cn1cc(-c2ccccc2)c(=O)c(-c2cccc(I)c2)c1 | 190 to 193
34 | COc1cccc(CN2CCN(C)CC2C2=NCCN2)c1OC (stereo not drawn) | 160 to 162
35 | CC(C)[C@@H](C(=O)N[C@@H](Cc1ccccc1)[C@@H](O)[C@H](O)[C@H](Cc1ccccc1)NC(=O)[C@H](C(C)C)N(C)C)N(C)C | 200 to 204
36 | NC(=O)CC(O)(c1ccc(Br)cc1)c1cccnc1 (stereo not drawn) | 213 to 214
37 | O=C(NCCO)C1=CNc2cccnc2S1 | 192 to 195
38 | O=c1cnc(C(F)(F)F)cn1-c1c(Cl)cc(C(F)(F)F)cc1Cl | 109 to 111
39 | CCN(CC1CCCC1)c1nc2ccccc2cc1CN(Cc1cc(C(F)(F)F)cc(C(F)(F)F)c1)c1nnc(C)o1 | 126 to 127
40 | CNCc1nc(-c2cc(C(C)(C)C)c(O)c(C(C)(C)C)c2)cs1 | 136
41 | C=C(C#N)C(=O)OCC(C)(C)C | 40 to 41
42 | CC(C)(C)OC(=O)CN(CC(=O)OC(C)(C)C)S(=O)(=O)c1ccc(N2CCC(NC[C@H](O)c3ccc(O)c(NS(C)(=O)=O)c3)CC2)cc1 | 164 to 166
43 | O=C(Nc1ccc2ccccc2c1-c1c(P(c2ccccc2)c2ccccc2)ccc2ccccc12)c1ccccc1 | 94.8
44 | Cc1n[nH]cc1-c1cnc2[nH]c(=O)n(CC3CCOCC3)c2n1 | 222 to 224

Row | Compound | melting point [°C]
45 | CC(C)CCCC(C)C1CCC2C3CC=C4CC(OCCI)CCC4(C)C3CCC12C (stereo not drawn) | 86 to 88
46 | CSC(=S)N1CCN(Cc2cc(OC(C)=O)ccc2O)CC1 | 124
47 | CN(C)C1(c2ccccc2)CCC(CNC(=O)N2CC=C(c3c[nH]c4ccc(Cl)cc34)CC2)CC1 (stereo not drawn) | 183 to 185
48 | CCn1nc(O)nc1SC | 83 to 87
49 | O=CN(O)C(CS(=O)(=O)c1ccc(Oc2ccc(OC(F)(F)F)cc2)cc1)C1CCC2(CC1)OCCO2 (stereo not drawn) | 176 to 177
50 | CN1Cn2ncc([N+](=O)[O-])c2-c2ccccc21 | 172 to 173
51 | O=[N+]([O-])c1cccc(NS(=O)(=O)c2ccccc2)c1 | 132 to 134
52 | CN(C)CCN(C)C(=O)[C@H]1CC[C@H](N(C)S(=O)(=O)c2ccc(C(F)(F)F)cc2)CC1 | 83
53 | COc1cc(I)ccc1C(=O)Nc1ccc(OC)c(N2CCN(C)CC2)c1 | 168 to 170
54 | O=C(O)CCC(=O)c1ccc([N+](=O)[O-])c(O)c1 | 158 to 160
55 | CC(=O)C1CCC2C3CCC4CC(O)C(O[N+](=O)[O-])CC4(C)C3C(=O)CC12C (stereo not drawn) | 170 to 176
56 | O=C(O)C1CC(c2ccc(-c3ccc(N4C[C@H](Cn5ccnn5)OC4=O)cc3F)cn2)=NO1 (stereo partly drawn) | 190 to 194
57 | O=C1CN2Cc3c(ccc(OCC(=O)N(CCO)C4CCCCC4)c3Cl)N=C2N1 | 237 to 239
58 | CN(C)C(=O)c1ccc(C2CCC(=O)CC2)cc1 | 118
59 | CC(C)c1cccc(C(C)C)c1N1C(=O)c2cccc3c(Oc4ccc(C(C)(C)CC(C)(C)C)cc4)ccc(c23)C1=O | 217
60 | c1ccc(COc2ccc(CNn3cncn3)cc2)cc1 | 123 to 124
61 | COC(=O)[C@H](Cc1cccc(Br)c1)NC(=O)OC(C)(C)C | 60 to 61
62 | C=C1C(=O)N[C@@H](Cc2ccccc2)C(=O)N1Cc1ccccc1 | 124 to 127
63 | COc1cc2c(cc1OC)C(C)(CCC(=O)O)OCC2=O (stereo not drawn) | 172 to 173
64 | CC(=O)CC(=O)N=C1SCCN1C | 43 to 45
65 | CN(C)C(=O)COC(=O)c1cc(-c2ccccc2)c(=O)n2c1-c1ccccc1C2 | 177 to 179
66 | COC(=O)Nc1cc(C(C)(C)C)on1 | 55.5 to 58.5

Next, values leading:

Row | melting point [°C] | Compound
67 | 84 to 86 | CCCCCCCCCCCCCCCCCCNC(=O)O[C@@H]1CCCO[C@H]1COCc1ccccc1 (relative stereo)
68 | 272 to 274 | CCNc1cc(NS(=O)(=O)c2ccc(N)cc2)nc(N)n1
69 | 118 to 120 | COC(=O)[C@H](Cc1ccc(I)cc1)NC(C)=O
70 | 188 | OC1c2ccccc2-c2nc(-c3ccc(Cl)cc3Cl)ncc21 (stereo not drawn)
71 | 210 to 212 | CN(C)c1ccc2c(c1)C(=O)CC(c1ccccc1OCc1ccccc1)=N2
72 | 62 to 64 | Cc1ccc(F)c(OCCCC(=O)O)c1
73 | 141 to 142 | CCOc1cccc(CC(=O)O)c1OCCCc1cn(-c2ccc(C(F)(F)F)cn2)nc1C(C)C
74 | 228 to 230 | O=c1[nH]c2cc(OCC(O)CN3CCOCC3)ccc2c2oc3ccccc3c12 (stereo not drawn)
75 | 207 to 210 | CCOC(=O)c1c(C)cc2c(=O)n(-c3ccccc3C(=O)O)cnc2c1C
76 | 156 to 158 | CCc1cc2c(O)c(C(=O)OCC(C)C)cnc2s1
77 | 98 to 99 | O=C(NCCCCCCNC(=O)NS(=O)(=O)c1ccc(Br)o1)NS(=O)(=O)c1ccc(Br)o1
78 | 100 to 102 | CN(C)CCC=C1c2ccccc2COc2ccc(CCO)cc21
79 | 130 | COc1cccc(S(=O)(=O)n2c(COC(C)(C)C(=O)O)cc3nc(Cl)ccc32)c1
80 | 36 to 37 | CCOC(=O)C=Cc1ccc(C)nc1
81 | 148 | O=c1c2ccccc2c(-c2ccccc2)cn1CC1CO1 (stereo not drawn)
82 | 231 | COC1(c2ccc(C(C)(C)C)cc2)CC1C(=O)N[C@H](C)c1ccc(NS(C)(=O)=O)c(C)c1 (stereo partly drawn)
83 | 78 | O=C(CCc1cccc2[nH]ccc12)c1ccccc1OCCN1CCCCC1
84 | 53 to 61 | CS(=O)(=O)NC(=O)c1ccccc1Nc1ccc(CCCc2ccc(Cl)c(Cl)c2)cc1
85 | 248 to 249 | Cc1cc(-c2nc3ccc(CCN4CCOCC4)cc3c(=O)[nH]2)cc(C)n1

Row | melting point [°C] | Compound
86 | 129 to 130 | CN(C)C(=O)Nc1ccc(OCCCC(=O)c2ccccc2)c(Cl)c1
87 | 65 to 67 | CCCCCCCCCCc1ccc2ccc(C)c(O)c2c1
88 | 140 to 144 | c1ccc(-c2cc3c(ccc4ccccc43)o2)cc1
89 | 200 to 202 | COC(=O)c1ccc2oc3c(c(=O)c2c1)CCC3=Cc1cccc(C)n1
90 | 177 to 179 | CCc1cc(=O)n(CCC(C(=O)NO)N(C)S(=O)(=O)c2ccc(Oc3ccccc3)cc2)c(=O)[nH]1 (stereo not drawn)
91 | 142 to 144 | CC(=O)c1ccc2c(c1)Cc1cccnc1O2
92 | 93 to 103 | CC=CCn1c(C)c(C)c2cnnc(OCc3ccc(F)cc3)c21
93 | 54 to 56 | COC[C@H]1CN(c2ccc([C@H]3CC[C@H](OCSC)CC3)cc2)C(=O)O1
94 | 240 | CCn1ncc2c(NCC3CCCCC3)c3cc(C(=O)O)ccc3nc21
95 | 107 | O=c1c2ccccc2ccn1Cc1ccc(F)cc1
96 | 140 to 142 | CCOC(=O)/C=C/C=C/c1cc2cc(N(C)C)ccc2s1
97 | 127 to 129 | CC(C)c1nc(N)oc1-c1cccc2ccccc12
98 | 156 | Oc1ccc(OCCOc2ccccc2)cc1
99 | 200 to 203 | CN(C)S(=O)(=O)c1cc(-c2csc(=Nc3ccc4c(c3)OCCO4)n2C)ccc1Cl
100 | 49 to 50 | OCCc1ccc(OCCCCl)cc1
101 | 56 to 64 | CCCN(CCC)C1CCc2ccc3c(c2C1)OCC3=O (stereo not drawn)
102 | 156 to 158 | CCOC(=O)c1ccc(-c2cc(O)c(SCCc3ccccc3)c(=O)o2)cc1
103 | 223 to 225 | COC(=O)c1c(N)c(-c2ccc(I)cc2)nc2ccc(F)cc12

Reference: a melting point compilation (Tetko et al.; mined from patent text by program, amines drawn as free bases though some values may be those of a salt)
